Measurements as given in the supplement of paper PMC3974653.

Tested on: MTT (mouse pheochromocytoma)
Assay: IC50 of cell viability (ATP content)
Details: (24 or 48 h)
In short: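 MTT mouse pheochromocytoma cells, cultured overnight at 37°C, 5% CO2 in DMEM with 5% FBS and 1% horse serum, were exposed in white 1536-well plates to library compounds in DMSO at final 0.5 nM to 46 µM (8 concentrations) for 24 or 48 hrs. CellTiter-Glo luminescence was normalised to positive-control (100%) and DMSO (0%) wells. A four-parameter logistic fit gave the IC50.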

Row | SMILES | IC50 of cell viability
1 | CC(=O)OC1(c2ccccc2)CCN(CCc2ccccc2)CC1 [1-(2-Phenylethyl)-4-phenyl-4-acetoxypiperidine] | > 46 µM
2 | Clc1cccc(N2CCNCC2)c1 [1-(3-CHLOROPHENYL)PIPERAZINE] | > 46 µM
3 | c1ccc(CN2CCNCC2)cc1 [1-Benzylpiperazine] | > 46 µM
4 | O=[N+]([O-])c1ccc(F)c([N+](=O)[O-])c1 [1-Fluoro-2,4-dinitrobenzene] | > 46 µM
5 | CCC(=O)OC1(c2ccccc2)CCN(C)CC1 [1-Methyl-4-phenyl-4-propionoxypiperidine] | > 46 µM
6 | O=C(O)Cc1cccc2ccccc12 [1-Naphthalene acetic acid] | > 46 µM
7 | O=C(O)Cc1cccc2ccccc12 [1-Naphthaleneacetic acid] | > 46 µM
8 | N#CC1(N2CCCCC2)CCCCC1 [1-PIPERIDINOCYCLOHEXANECARBONITRILE] | > 46 µM
9 | CC1=NN(c2ccccc2)C(=O)C1 [1-Phenyl-3-methyl-5-pyrazolone] | > 46 µM
10 | NC1(c2ccccc2)CCCCC1 [1-Phenylcyclohexyl] | > 46 µM
11 | Nc1ncnc2c1ncn2[C@H]1CC[C@@H](CO)O1 [2',3'-DIDEOXYADENOSINE] | > 46 µM
12 | NC/1=N/C(=O)N(/C=C1)[C@H]2CC[C@@H](CO)O2 [2',3'-Dideoxycytidine] | > 46 µM
13 | O=[N+]([O-])c1c(Cl)c(Cl)cc(Cl)c1Cl [2,3,5,6-Tetrachloronitrobenzene] | > 46 µM
14 | c1ccc2occc2c1 [2,3-Benzofuran] | > 46 µM
15 | O.O=S(=O)([O-])CC(S)CS.[Na+] (stereo not drawn) [2,3-DIMERCAPTOPROPANE-1-SULFONATE SODIUM] | > 46 µM
16 | CCCCCCCCCCCCCCCC(=O)OC[C@@H](COP(=O)([O-])OCC[N+](C)(C)C)OC(=O)CCCCCCCCCCCCCCC [2,3-Dipalmitoyl-sn-glycero-1-phosphocholine] | > 46 µM
17 | Oc1cc(Cl)c(Cl)cc1Cl [2,4,5-Trichlorophenol] | > 46 µM
18 | COc1cc(OC)c(OC)cc1C=O [2,4,5-Trimethoxybenzaldehyde] | > 46 µM
19 | Oc1c(Br)cc(Br)cc1Br [2,4,6-Tribromophenol] | > 46 µM

Row | SMILES | IC50 of cell viability
20 | Nc1cc(O)nc(N)n1 [2,4-Diamino-6-hydroxypyrimidine] | > 46 µM
21 | CCN(CC)N(O)N=O.CCNCC [2-(N,N-DIETHYLAMINO)DIAZENOLATE-2-OXIDE DIETHYLAMONIUM SALT] | > 46 µM
22 | Nc1ncnc(Nc2ccc(Cl)cc2)n1 [2-AMINO-4-(4-CHLOROANILINO)-1,3,5-TRIAZINE] | > 46 µM
23 | N=C(N)NN.O=[S+]([O-])(O)O [2-AMINOGUANIDINE HEMISULFATE] | > 46 µM
24 | Nc1ccc([N+](=O)[O-])cc1O [2-Amino-5-nitrophenol] | > 46 µM
25 | Nc1nc2ccc([N+](=O)[O-])cc2s1 [2-Amino-6-nitrobenzothiazole] | > 46 µM
26 | Brc1ccccc1-c1ccccc1 [2-Bromobiphenyl] | > 46 µM
27 | CCCC(O)C(CC)CO (stereo not drawn) [2-ETHYL-1,3-HEXANEDIOL] | > 46 µM
28 | CCOc1ccccc1C(N)=O [2-Ethoxybenzamide (Ethenzamide)] | > 46 µM
29 | CCOCCOC(C)=O [2-Ethoxyethyl acetate] | > 46 µM
30 | O=C(OCCO)c1ccccc1O [2-Hydroxyethyl salicylate] | > 46 µM
31 | Sc1nc2ccccc2s1 [2-Mercaptobenzothiazole] | > 46 µM
32 | COc1ccccc1O [2-Methoxyphenol] | > 46 µM
33 | Cc1ncc[nH]1 [2-Methylimidazole] | > 46 µM
34 | Nc1ccc(N)c([N+](=O)[O-])c1 [2-Nitro-1,4-phenylenediamine] | > 46 µM
35 | O=C(O)CCC(=O)C(=O)O [2-Oxopentanedioic acid] | > 46 µM
36 | OCCOc1ccccc1 [2-Phenoxyethanol] | > 46 µM
37 | O=C(O)c1cc(-c2ccccc2)nc2ccccc12 [2-Phenyl-4-quinolinecarboxylic acid] | > 46 µM
38 | OCCc1ccccc1 [2-Phenylethanol] | > 46 µM
